Legend:
histamine H2-receptor = biological target: T1, histamine H2-receptor (Cavia porcellus, UniProt P47747); assay: Histamine H2-receptor antagonism, isolated guinea pig right atria assay (displacement of histamine concentration-response curve for atrial rate)
T1 construct: The spontaneously beating right atrium was dissected free from other tissues; from tissue; host or cells: isolated spontaneously beating right atrium of male Hartley guinea pigs
Description: Subsequent investigations by Hughes and Coret, Proc. Soc. […] Black et al., Agents and Actions, 3, 133 (1973) and Brimblecombe et al., Fed. […] The present comparative studies were carried out using a modification of the procedure reported by Reinhardt et al., Agents and Actions, 4, 217 (1974).
Male Hartley strain guinea pigs (350-450 gm.) were sacrificed by a blow on the head. The heart was excised and placed in a Petri dish of oxygenated (95% O2, 5% CO2) modified Krebs solution (g./liter: NaCl 6.6, KCl 0.35, MgSO4.7 H2 O 0.295, KH2 PO4 0.162, CaCl2 0.238, NaHCO3 2.1 and dextrose 2.09). The spontaneously beating right atrium was dissected free from other tissues and a silk thread (4-0) attached to each end. The atrium was suspended in a 20 ml. muscle chamber containing oxygenated modified Krebs solution maintained at 32° C. Atrial contractions were recorded isometrically be means of a Grass FT 0.03 force displacement transducer and recordings of contractile force and rate were made with Beckman RP Dynograph.
A resting tension of 1 g. was applied to the atrium and it was allowed to equilibrate for 1 hour.
Concentration-response curve displacement factors were calculated as follows: [formula] […] [formula]

histamine H2-receptors = conditions: Black et al., Nature 1972; cited from earlier work
[1] = in vivo; cited from earlier work
H2-receptor = conditions: cited from earlier work
peptic ulcer disease = conditions: clinical evaluation, Gray et al., Lancet 1977; cited from earlier work
[2] = cited from earlier work
[3] = histamine ED50 after 30 minute incubation with test compound at 3 × 10^-5 M

T1 sequence (P47747 whole entry): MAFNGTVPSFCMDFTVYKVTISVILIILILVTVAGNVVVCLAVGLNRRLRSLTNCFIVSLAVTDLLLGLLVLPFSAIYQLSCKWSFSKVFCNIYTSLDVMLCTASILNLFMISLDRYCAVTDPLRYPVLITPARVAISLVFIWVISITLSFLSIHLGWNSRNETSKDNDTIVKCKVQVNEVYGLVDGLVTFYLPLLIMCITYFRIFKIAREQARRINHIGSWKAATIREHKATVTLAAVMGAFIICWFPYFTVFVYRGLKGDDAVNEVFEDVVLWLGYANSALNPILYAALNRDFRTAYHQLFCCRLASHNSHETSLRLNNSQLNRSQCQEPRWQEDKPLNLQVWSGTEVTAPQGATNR

SMILES: C#CCNC(=C[N+](=O)[O-])NCCSCc1ncccc1Cl [BL-6075, 1-Nitro-2-(2-propynylamino)-2-{2-[(3-chloro-2-pyridyl)methylthio]ethylamino}ethylene]
- Activity Ratio Relative to Cimetidine (histamine H2-receptor; Table 1, ratio of displacement factors, 3 × 10^-5 M): 2.09
- Histamine ED50 With 95% Confidence Limits (histamine H2-receptor; [3]): 20.97 µg/mL

SMILES: C#CCNC(=NCCSCc1ncccc1Cl)NC#N [BL-6083, N-Cyano-N'-(2-propyn-1-yl)-N"-{2-[(3-chloro-2-pyridyl)methylthio]ethyl}guanidine]
- potency/activity relative to cimetidine as a histamine H2-receptor antagonist (histamine H2-receptor; based on displacement factors): 8.19 times
- Histamine ED50 With 95% Confidence Limits (histamine H2-receptor; [3]): 57.92 µg/mL

SMILES: CNC(=S)NCCCCc1cnc[nH]1 [Burimamide]
- mode of antagonism at histamine H2-receptors (histamine H2-receptors): competitive antagonist
- oral absorption [1]: oral absorption is poor

SMILES: CN/C(=N/CCSCc1nc[nH]c1C)NC#N [Cimetidine]
- potency/effectiveness as H2 antagonist vs. earlier compound (H2-receptor): as effective an H2 antagonist as metiamide
- efficacy in treatment of peptic ulcer disease (peptic ulcer disease): effective therapeutic agent in the treatment of peptic ulcer disease
- Histamine ED50 With 95% Confidence Limits (histamine H2-receptor; [3]): 4.80 µg/mL
- Concentration-Response Curve Displacement Factor (histamine H2-receptor; test compound 3 × 10^-5 M, rightward displacement of histamine curve): 25.26

SMILES: NCCc1c[nH]cn1 [Histamine]
- Histamine ED50 With 95% Confidence Limits (histamine H2-receptor; histamine control before BL-6075, N=3): 0.39 µg/mL
- concentration of maximal response (atrial rate) (histamine H2-receptor; histamine, cumulative addition): 30 µM

SMILES: C/N=C(\S)NCCSCc1[nH]cnc1C [Metiamide]
- potency/effectiveness as H2 antagonist vs. earlier compound (H2-receptor): more potent than burimamide
- oral activity in man [2]: orally active in man

From patent US4289876A, “Antisecretory agents” (Bristol-Myers Company, priority 1980, dated 1981)
